Laboratory results published in patent US11058665B2, “Methods for treating brain metastasis” (MEMORIAL SLOAN-KETTERING CANCER CENTER, priority 2014, dated 2021).
Where a name gives a salt, the structure may show the parent alone.

How the values were obtained:
[1] = tested on: MDA231-BrM2 cells (brain metastatic lesions); test: Established brain metastasis treatment, starting 14 days after inoculation with MDA231-BrM2 cells, BLI; format: in vivo, mice; details: for progression of brain metastatic lesions (BLI): treatment from day 14, 35-day end point, Tonabersat 10 mg/kg, meclofenamate 20 mg/kg, carboplatin 50 mg/kg/5 days, FIG. 5h,i
Description: (§1) All experiments using animals were done in accordance to protocols approved by the MSKCC Institutional Animal Care and Use Committee. Athymic NCR nu/nu mice (NCI-Frederick), Cr:NIH bg-nu-xid mice (NCI-Frederick) and B6129SF1/J mice (Jackson Laboratory) were use at 5-6 weeks of age. For long-term brain metastasis assays we followed previously described procedures (Bos, Nguyen et al. 2010). In brief, 10^4 MDA231-BrM2 cells, 5×10^4 H2030-BrM3 cells, or 10^5 393N1 cells suspended in 100 μl of PBS were injected into the left cardiac ventricle. At the experimental endpoint, anesthetized mice (ketamine 100 mg/kg, xylazine 10 mg/kg) were injected retro-orbitally with D-luciferin (150 mg/kg), and brain colonization was quantified by ex vivo Bio-luminescent imaging (BLI). For short-term (7-day and 14-day) brain metastasis experiments, we injected 5×10^5 cells. TRITC dextran (70 KD) (Life Technologies) was intravenously injected to stain vascular structures. For inducible knockdown experiments, mice were given doxycycline hyclate (Sigma-Aldrich) in the drinking water (2 mg/mL) and the diet (Harlan) 14 days after injection of cancer cells. For lung colonization assays, 2×10^5 MDA231-BrM2 cells in 100 piL PBS were injected into the lateral tail vein. For orthotopic tumour implantation, 5×10^3 cells in 50 piL of 1:1 mix of PBS/growth factor reduced matrigel (BD Biosciences) were injected into the 4th right mammary fat pad of female mice. For drug treatment experiments, mice were intraperitoneally injected with carboplatin (Hospira) (50 mg/kg/5 days), Tonabersat (MedChem Express) (10 mg/kg/day), or meclofenamic acid sodium salt (Sigma-Aldrich) (20 mg/kg/day). Vehicle (10% DMSO in Polyethylene glycol 400) was used in control mice. BLI was performed using an IVIS Spectrum Xenogen instrument (Caliper Life Sciences) and analysed using Living Image software, v. 2.50. For brain metastasis assays, 8-10 mice were used in each group. For drug treatment experiments, mice were inoculated with cancer cells and randomly assigned to treatment groups. Gap junction modulators and chemotherapeutic agents were blindly administered in the MSKCC Antitumour Assessment Core.

[2] = after systemic administration; cited from earlier work
[3] = tested on: brain metastases from breast or lung cancer; details: cited from earlier work
[4] = tested on: gap junction dye transfer from astrocytes to MDA231-BrM2 cells; test: Dye transfer assay (calcein) from astrocytes to cancer cells, flow cytometry; format: cell-based, human; details: for dye transfer from astrocytes to cancer cells: MDA231-BrM2 cells, flow cytometry, FIG. 5a
Description: Dye Transfer and EdU Transfer Assays.
Monolayers of cancer cells or astrocytes were labeled with 2.5 gig/ml calcein Red-Orange AM dye (Life Technologies) at 37° C. for 30 min. Single cell suspensions were mixed at a ratio of 2:1 labeled:unlabeled cells for 6 h. Certain experiments used a mix of three cell populations, MDA231-BrM2 (GFP+), HBMEC (pre-labeled with Cell Proliferating Dye Fluor@670, eBioscience), and unlabeled astrocytes. Dye transfer was visualized by Zeiss LSM 5 Live confocal microscopy (20-min time-lapse) or quantified by FACSCalibur flow cytometry (BD Biosciences) at different time points. For DNA transfer assays, cancer cells were labeled overnight with EdU (10 μM, Molecular Probes) and maintained in culture for additional 3 days. Single cell suspensions of labeled cancer cells and astrocytes were mixed at 2:1 ratio for 6 h. EdU transfer was visualized using Zeiss LSM 5 Live confocal microscopy or quantified by FACSCalibur flow cytometry (BD Biosciences) following the manufacturer's instructions (Molecular Probes).

[5] = cited from earlier work
[6] = tested on: trigeminal ganglion neuronal-satellite cell signaling; details: animal models; cited from earlier work
[7] = in vivo; cited from earlier work
[8] = tested on: MDA231-BrM2 cells, H2030-BrM3 cells, KRas/p53-393N1 cells (brain metastases); test: Brain metastasis assay, drug given daily from day 1 after arterial inoculation of cancer cells, BLI; format: in vivo; details: treated from day 1; MDA231-BrM2 or H2030-BrM3 in immunodeficient mice, KRas/p53-393N1 in immunocompetent mice; Tonabersat 10 mg/kg/day, meclofenamate 20 mg/kg/day i.p.
Description: as §1, with “For orthotopic tumour implantation, 5×10^3 cells in 50 piL of 1:1 mix of PBS/growth factor reduced matrigel (BD Biosciences) were injected into the 4th right mammary fat pad of female mice. For drug treatment experiments, mice were intraperitoneally injected with carboplatin (Hospira) (50 mg/kg/5 days), Tonabersat (MedChem Express) (10 mg/kg/day), or meclofenamic acid sodium salt (Sigma-Aldrich) (20 mg/kg/day). Vehicle (10% DMSO in Polyethylene glycol 400) was used in control mice.” left out, “2.50. For brain metastasis assays, 8-10 mice were used in each group. For drug treatment experiments, mice were inoculated with cancer cells and randomly assigned to treatment groups. Gap junction modulators and chemotherapeutic agents were blindly administered in the MSKCC Antitumour Assessment Core.” left out

[9] = tested on: release of IFNα and TNFα in co-cultures of astrocytes and cancer cells; test: ELISA of IFNα and TNFα in conditioned media from MDA231-BrM2 cell and astrocyte co-cultures; format: cell-based, human; details: FIG. 5b
Description: Cancer Cell and Astrocyte Co-Culture Experiments.
Astrocytes and cancer cells were mixed at ratio of 1:1. For apoptosis assays, overnight co-cultures were treated with 500 ng/ml sFasL (Peprotech) in serum free media, 500 nM carboplatin (Sigma-Aldrich) or 25 nM Paclitaxel (Sigma-Aldrich) for 24 h. Single cell suspensions were stained with APC-conjugated cleaved caspase 3 antibody (Cell Signaling), apoptotic GFP+ cancer cells were detected by flow cytometery. For translating ribosome affinity purification (TRAP), EGFP-L10a expressing cancer cells were co-cultured with astrocytes for 24 h. Following previously published protocols, (Heiman, Schaefer et al. 2008, Zhang, Jin et al. 2013) mRNA purified from cancer cells were was used for library construction with TruSeq RNA Sample Prep Kit v2 (Illumina) following the manufacturer's instructions. Samples were barcoded and run on a Hiseq 2000 platform in a 50 bp/50 bp paired-end run, using the TruSeq SBS Kit v3 (Illumina). An average of 50 million paired reads were generated per sample. For conditioned media analysis, media were collected after 24 h, and cytokines in the conditioned media were either identified using Human Cytokine Array (R&D systems) or measured by IFNα or TNFα ELISA kits (R&D systems). To detect the activity of IFNα or TNFα in the collected conditioned media, cancer cells were treated with the collected conditioned media for 2 h and phosphorylation status of STAT1 or NF-κB p65 was determined by western blotting. For cGAMP and […] activation experiments, cancer cells and astrocytes were co-cultured for 18 h. The phosphorylation status of TBK1, IRF3 was determined by western immunoblotting. Nuclear translocation of IRF3 was determined by immunofluorescence staining with Zeiss LSM 5 Live confocal microscopy. cGAMP levels were determined by LC-MS/MS.

[10] = tested on: MDA231-BrM2 cells as orthotopic tumours; test: Orthotopic tumour implantation in mammary fat pad, BLI; format: in vivo, mice; details: FIG. 15c, same treatment
Description: as §1, with “For orthotopic tumour implantation, 5×10^3 cells in 50 piL of 1:1 mix of PBS/growth factor reduced matrigel (BD Biosciences) were injected into the 4th right mammary fat pad of female mice. For drug treatment experiments, mice were intraperitoneally injected with carboplatin (Hospira) (50 mg/kg/5 days), Tonabersat (MedChem Express) (10 mg/kg/day), or meclofenamic acid sodium salt (Sigma-Aldrich) (20 mg/kg/day). Vehicle (10% DMSO in Polyethylene glycol 400) was used in control mice.” left out, “2.50. For brain metastasis assays, 8-10 mice were used in each group. For drug treatment experiments, mice were inoculated with cancer cells and randomly assigned to treatment groups. Gap junction modulators and chemotherapeutic agents were blindly administered in the MSKCC Antitumour Assessment Core.” left out

[11] = tested on: MDA231-BrM2 cells as lung metastatic lesions; test: Lung colonization assay, MDA231-BrM2 cells, BLI; format: in vivo, mice; details: FIG. 15d; same treatment from day 1
Description: as §1, with “For orthotopic tumour implantation, 5×10^3 cells in 50 piL of 1:1 mix of PBS/growth factor reduced matrigel (BD Biosciences) were injected into the 4th right mammary fat pad of female mice. For drug treatment experiments, mice were intraperitoneally injected with carboplatin (Hospira) (50 mg/kg/5 days), Tonabersat (MedChem Express) (10 mg/kg/day), or meclofenamic acid sodium salt (Sigma-Aldrich) (20 mg/kg/day). Vehicle (10% DMSO in Polyethylene glycol 400) was used in control mice.” left out, “2.50. For brain metastasis assays, 8-10 mice were used in each group. For drug treatment experiments, mice were inoculated with cancer cells and randomly assigned to treatment groups. Gap junction modulators and chemotherapeutic agents were blindly administered in the MSKCC Antitumour Assessment Core.” left out

[12] = tested on: cortical spreading depression; details: gap-junction-mediated pathophysiological process; cited from earlier work
[13] = tested on: unique stereoselective binding site in astrocytes; details: cited from earlier work
Cx43 gap junction = details: cited from earlier work
epileptogenesis = details: in vivo; cited from earlier work

SMILES | brain metastasis (BLI) in inducible shRNA experiment ([1]; carboplatin alone 50 mg/kg/5 days starting on day 14, compared with depletion of Cx43 or PCDH7, FIG. 5f,g) | progression of brain metastatic lesions (BLI) [1] | passage of the BBB [2] | overall survival in patients with brain metastases [3] | dye transfer from astrocytes to MDA231-BrM2 cells, compared with Cx43 depletion ([4]; Carbenoxolone 50 uM, FIG. 8b) | tolerability and safety in patients with migraine ([5]; patients with migraine) | trigeminal ganglion neuronal-satellite cell signaling [6] | oral bioavailability [7] | emergence of brain metastases (BLI) [8] | release of IFNα in co-cultures [9] | release of TNFα in co-cultures [9] | growth of MDA231-BrM2 cells as orthotopic tumours [10] | growth of MDA231-BrM2 cells as lung metastatic lesions [11] | cortical spreading depression [12] | binding to site in astrocytes [13] | dye transfer from astrocytes to cancer cells [4] | systemic tolerability ([5]; in vivo) | Cx43 gap junction gating (Cx43 gap junction) | epileptogenesis in animal models (epileptogenesis)
N.N.O=C([O-])C1(C(=O)[O-])CCC1.[Pt+2] [carboplatin] | inhibited brain metastasis to a similar extent as depletion of Cx43 or PCDH7 | minimally inhibited brain metastasis growth | crosses the BBB | modest improvement in overall survival |  |  |  |  |  |  |  |  |  |  |  |  |  |  | 
CC1(C)[C@@H](OC(=O)CCC(=O)O)CC[C@]2(C)[C@H]3C(=O)C=C4[C@@H]5C[C@@](C)(C(=O)O)CC[C@]5(C)CC[C@@]4(C)[C@]3(C)CC[C@@H]12 [carbenoloxone, carbenoxolone] |  |  |  |  | extent of dye-transfer inhibition after Cx43 depletion was comparable |  |  |  |  |  |  |  |  |  |  |  |  |  | 
CC(=O)c1ccc2c(c1)[C@H](NC(=O)c1ccc(F)c(Cl)c1)[C@H](O)C(C)(C)O2 [Tonabersat] |  | significantly inhibited progression of metastatic lesions |  |  |  | systemically well-tolerated and safe | inhibits | orally bioavailable | prevented the emergence of brain metastases | inhibited | inhibited | did not restrict growth | did not restrict growth | inhibits | binds to a unique stereoselective binding site in astrocytes | inhibited dye transfer |  |  | 
Cc1ccc(Cl)c(Nc2ccccc2C(=O)O)c1Cl [meclofenamate, meclofenamic acid sodium salt] |  | significantly inhibited progression of metastatic lesions | passes the BBB |  |  |  |  | orally bioavailable | prevented the emergence of brain metastases | inhibited | inhibited | did not restrict growth | did not restrict growth |  |  | inhibited dye transfer | well tolerated systemically | inhibits Cx43 gap junction gating | inhibits epileptogenesis
